Data as given in US4022895A, “Substituted phenylglycylcephalosporins” (SmithKline Corporation, priority 1975, dated 1977).
Converted amounts (≈) assume the structure as drawn. Where two headings read alike, the source gives them in different places.

Columns and labels:
Klebs.pneumo. 4200 = experiment: In vivo activity (ED50) against Klebs.pneumo. 4200; conditions: read-out: ED50
E.coli 12140 = experiment: In vivo activity (ED50) against E.coli 12140
E. coli HH 33779 = experiment: In vitro antibacterial activity (MIC); type: cell-based; conditions: Escherichia coli, HH33779; E. coli HH 33779, in vitro; read-out: MIC
Protocol: (§1) The compounds of this invention have antibacterial activity against Gram-positive and Gram-negative organisms. Minimum inhibitory concentrations (MIC's) ranged from 0.4 to >200 μg/ml in in vitro testing.

Shig. paradys HH 112 = experiment: In vitro antibacterial activity (MIC); type: cell-based
Protocol: as §1

Strep. faecalis HH 34358 = experiment: In vitro antibacterial activity (MIC); type: cell-based; conditions: Enterococcus faecalis, HH34358; Strep. faecalis HH 34358, in vitro
Protocol: as §1

[1] = tested on: Entero. aerog. ATCC 13048; experiment: In vitro antibacterial activity (MIC); type: cell-based; conditions: Entero. aerog. ATCC 13048, in vitro; read-out: MIC
Protocol: as §1

Kleb. pneumo. SK 1200 = experiment: In vitro antibacterial activity (MIC); type: cell-based
Protocol: as §1

S.aureus Villaluz = experiment: In vitro antibacterial activity (MIC); type: cell-based; conditions: Staphylococcus aureus
Protocol: as §1

[2] = tested on: Sal. paratyphl ATCC 12176; experiment: In vitro antibacterial activity (MIC); type: cell-based
Protocol: as §1

Kleb. pneumo. SK 4200 = experiment: In vitro antibacterial activity (MIC); type: cell-based; conditions: Kleb. pneumo. SK 4200, in vitro; read-out: MIC
Protocol: as §1

S.aureus SK 23390 = experiment: In vitro antibacterial activity (MIC); type: cell-based; conditions: Staphylococcus aureus, SK23390
Protocol: as §1

E.coli SK 12140 = experiment: In vitro antibacterial activity (MIC); type: cell-based; conditions: Escherichia coli, SK12140
Protocol: as §1

S.aureus HH 127 = experiment: In vitro antibacterial activity (MIC); type: cell-based; conditions: Staphylococcus aureus, HH127; S.aureus HH 127, in vitro; read-out: MIC
Protocol: as §1

Proteus morgani 179 = experiment: In vitro antibacterial activity (MIC); type: cell-based; conditions: Proteus morgani 179, in vitro; read-out: MIC
Protocol: as §1

[3] = Escherichia coli, 12140, sc, E.coli 12140, s.c.
[4] = Shig. paradys HH 112, in vitro, read-out: MIC
[5] = S.aureus SK 23390, in vitro, read-out: MIC
[6] = Escherichia coli, 12140, po, E.coli 12140, p.o.
[7] = Kleb. pneumo. SK 1200, in vitro, read-out: MIC
[8] = E.coli SK 12140, in vitro, read-out: MIC

Compound | ED50 (Klebs.pneumo. 4200; po, Klebs.pneumo. 4200, p.o.) [mg/kg] | ED50 (E.coli 12140; [3]) [mg/kg] | MIC (E. coli HH 33779) [mg/L] | MIC (Shig. paradys HH 112; [4]) [mg/L] | MIC (Strep. faecalis HH 34358) [mg/L] | MIC [1] [mg/L] | MIC (Kleb. pneumo. SK 1200) [mg/L] | MIC (S.aureus Villaluz) [mg/L] | MIC [2] [mg/L] | MIC (Kleb. pneumo. SK 4200) [mg/L] | MIC (S.aureus SK 23390; [5]) [mg/L] | MIC (E.coli SK 12140) [mg/L] | MIC (S.aureus HH 127) [mg/L] | ED50 (Klebs.pneumo. 4200; sc, Klebs.pneumo. 4200, s.c.) [mg/kg] | ED50 (E.coli 12140; [6]) [mg/kg] | MIC (Kleb. pneumo. SK 1200; [7]) [mg/L] | MIC (S.aureus SK 23390) [mg/L] | MIC (E.coli SK 12140; [8]) [mg/L] | MIC (Proteus morgani 179) [mg/L] | MIC (Shig. paradys HH 112) [mg/L]
Cc1nnc(SCC2=C(C(=O)O)N3C(=O)C(NC(=O)C(N)c4ccc(OCC(=O)O)cc4)C3SC2)s1 (stereo not shown) [*59216] | 29 | 6.2 | 6.3 to 25 (≈ 11.4 to 45.3 µM) | 1.6 to 12.5 (≈ 2.9 to 22.7 µM) | 50 to 200 (≈ 90.6 to 363 µM) | 12.5 to 50 (≈ 22.7 to 90.6 µM) | 3.1 to 12.5 (≈ 5.62 to 22.7 µM) | 100 to 200 (≈ 181 to 363 µM) | 3.1 to 12.5 (≈ 5.62 to 22.7 µM) | 1.6 to 6.3 (≈ 2.9 to 11.4 µM) | 100 to 200 (≈ 181 to 363 µM) | 3.1 to 12.5 (≈ 5.62 to 22.7 µM) | 6.3 to 25 (≈ 11.4 to 45.3 µM) | – | – | – | – | – | – | –
Cc1nnc(SCC2=C(C(=O)O)N3C(=O)C(NC(=O)C(N)c4ccc(OCC(N)=O)cc4)C3SC2)s1 (stereo not shown) [*71816] | 13.7 | 13.7 | 50 (≈ 90.8 µM) | 12.5 (≈ 22.7 µM) | 200 (≈ 363 µM) | 100 (≈ 182 µM) | – | 100 (≈ 182 µM) | 12.5 (≈ 22.7 µM) | 25 (≈ 45.4 µM) | – | – | 25 (≈ 45.4 µM) | 11.5 | 21.5 | 50 (≈ 90.8 µM) | 12.5 (≈ 22.7 µM) | 50 (≈ 90.8 µM) | – | –
COC(=O)COc1ccc([C@@H](N)C(=O)NC2C(=O)N3C(C(=O)O)=C(C)CSC23)cc1 (stereo partly drawn) [Compound No. 07826, 7-[D-α-Amino-α-(4'-carbomethoxymethoxyphenyl)acetamido]-3-desacetoxycephalosporanic acid] | – | – | > 200 | 50 (≈ 115 µM) | 100 (≈ 230 µM) | > 200 | – | 200 (≈ 459 µM) | 50 (≈ 115 µM) | 100 (≈ 230 µM) | 6.3 (≈ 14.5 µM) | – | 6.3 (≈ 14.5 µM) | – | – | 100 (≈ 230 µM) | – | 100 (≈ 230 µM) | – | –
COC(=O)COc1ccc([C@@H](N)C(=O)NC2C(=O)N3C(C(=O)O)=C(CSc4c[nH]nn4)CSC23)cc1 (stereo partly drawn) [Compound No. 19736, 7-[D-α-Amino-α-(4'-carbomethoxymethoxyphenyl)acetamido]-3-(1,2,3-triazol-4-ylthiomethyl)-3-cephem-4-carboxylic acid] | – | 34 | 100 (≈ 187 µM) | 25 (≈ 46.8 µM) | 100 (≈ 187 µM) | > 200 | – | 200 (≈ 374 µM) | 25 (≈ 46.8 µM) | 50 (≈ 93.5 µM) | 12.5 (≈ 23.4 µM) | – | 12.5 (≈ 23.4 µM) | – | 25 | 50 (≈ 93.5 µM) | – | 50 (≈ 93.5 µM) | > 200 | –
COC(=O)COc1ccc([C@@H](N)C(=O)NC2C(=O)N3C(C(=O)O)=C(CSc4nnnn4C)CSC23)cc1 (stereo partly drawn) [Compound No. 26436, 7-[D-α-Amino-α-(4'-carbomethoxymethoxyphenyl)acetamido]-3-(1-methyl-1,2,3,4-tetrazol-5-ylthiomethyl)-3-cephem-4-carboxylic acid] | 5.5 | 1.2 | 12.5 (≈ 22.7 µM) | – | 50 (≈ 91 µM) | 25 (≈ 45.5 µM) | – | 25 (≈ 45.5 µM) | 3.1 (≈ 5.64 µM) | 6.3 (≈ 11.5 µM) | 6.3 (≈ 11.5 µM) | – | 6.3 (≈ 11.5 µM) | 1.5 | 9.6 | 6.3 (≈ 11.5 µM) | – | 12.5 (≈ 22.7 µM) | 50 (≈ 91 µM) | 6.5 (≈ 11.8 µM)
Cn1nnnc1SCC1=C(C(=O)O)N2C(=O)C(NC(=O)[C@H](N)c3ccc(OCC(=O)O)cc3)C2SC1 (stereo partly drawn) [Compound No. 42526, 7-[D-α-Amino-α-(4'-carboxymethoxyphenyl)acetamido]-3-(1-methyl-1,2,3,4-tetrazol-5-ylthiomethyl)-3-cephem-4-carboxylic acid] | 33 | 9.5 | 12.5 (≈ 23.3 µM) | 6.3 (≈ 11.8 µM) | > 200 | 12.5 (≈ 23.3 µM) | – | 200 (≈ 373 µM) | 6.3 (≈ 11.8 µM) | 3.1 (≈ 5.79 µM) | 25 (≈ 46.7 µM) | – | 25 (≈ 46.7 µM) | 5.4 | > 50 | 3.1 (≈ 5.79 µM) | – | 6.3 (≈ 11.8 µM) | 100 (≈ 187 µM) | –
